Target: T1, cysLT2 receptor (Homo sapiens, UniProt Q9NS75)
T1 construct: expressed in transfected cells; host or cells: HEK293
T1 sequence (Q9NS75 1-346): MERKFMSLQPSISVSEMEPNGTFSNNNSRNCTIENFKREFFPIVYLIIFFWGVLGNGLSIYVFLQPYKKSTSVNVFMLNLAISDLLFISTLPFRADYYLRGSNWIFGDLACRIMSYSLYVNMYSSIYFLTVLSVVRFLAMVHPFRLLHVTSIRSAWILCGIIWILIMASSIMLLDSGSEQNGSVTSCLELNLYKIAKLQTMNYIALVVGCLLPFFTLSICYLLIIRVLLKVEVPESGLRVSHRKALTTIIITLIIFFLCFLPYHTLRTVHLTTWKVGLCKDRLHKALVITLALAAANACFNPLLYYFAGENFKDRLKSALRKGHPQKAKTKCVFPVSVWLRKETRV
Test: Effect on LTD4-induced increase of intracellular calcium
Assay type: cell-based
Conditions: HEK293 expression cells of cysLT2 receptor, 100 nM LTD4, compound 180 seconds before stimulation; read-out: IC50 value (50% inhibitory concentration, LTD4-induced intracellular calcium influx)
Experimental: Expression cells of cysLT2 receptor (HEK293) were seeded in a 96-well plate each containing 1×10^5 cells. The cells were cultured for 24 hours in a 5% CO2 at 37° C. using DMEM (Dulbecco's Modified Eagle Medium). The cells were incubated in 7.5 μM Fura2-AM, 20 mM HEPES (2-[4-(2-hydroxyethyl)-1-piperazinyl]ethanesulfonic acid) and 2.5 mM probenecid for approximately 30 minutes at 37° C. The cells with uptake of Fura2-AM were once washed with assay buffer (Hank's buffer containing 20 mM HEPES) and intracellular calcium influx induced by LTD4 was measured by FDSS2000 (Hamamatsu Photonics K.K.). The compound of the present invention was administered 180 seconds before LTD4 stimulation, and the reaction induced by 100 nM LTD4 was measured in time course for 90 seconds. The effect of the compound of the present invention was evaluated by maximum fluorescence intensity, and 50% inhibitory concentration (IC50) was calculated on each compound.

## O=C(O)CCC(=O)N1CC(c2nnn[nH]2)Oc2c(NC(=O)c3ccc(OCCCCc4ccccc4)cc3)cccc21 (centres unmarked) [Example 12]
  IC50: 0.101 µM

## O=C(O)CCCN1CC(C(=O)O)Oc2c(OCc3ccc(OCCCCc4ccccc4)cc3)cccc21 (centres unmarked) [Example 25]
  IC50: 0.03 µM

From US7763610B2, “Carboxylic acid derived benzoxazines as agents for the treatment of respiratory diseases” (Ono Pharmaceutical Co., Ltd., priority 2003, dated 2010)
